As a reminder, the EC50 is the concentration giving half of the maximal effect.

Some results are limits rather than exact numbers.

This is an account of results in patent publication US20110166142A1, “2-SUBSTITUTED ISOFLAVONOID COMPOUNDS, MEDICAMENTS AND USES” (priority 2007, published 2011).

Test [1] is described as follows: Free radical scavenging (DPPH). The note with it: for EC50: 0.1 mM DPPH in ethanol, 20 minutes, absorbance 517 nm, concentration causing 0.6 change in absorbance, read-out: Free radical scavenging ability EC50; for free radical scavenging activity: DPPH. The procedure: The antioxidant (free radical trapping) activity of test compounds was assessed using the stable free radical compound 2,2-diphenyl-1-picrylhydrazyl (DPPH). A stock solution of DPPH was prepared at a concentration of 0.1 mM in ethanol and mixed for 10 minutes prior to use. Test compounds at a concentration of 100 μM were reacted with DPPH for 20 minutes, after which time the absorbance at 517 nm was determined and the change in absorbance compared to a reagent blank (DPPH with ethanol alone). A dose response curve was produced for those compounds with free radical scavenging activity (ΔAbs>0.3) at 100 μM. The IC50 value was estimated as the concentration of test compound that caused a 0.6 change in absorbance (with 1.2 absorbance units representing total scavenging of the DPPH radical).
Background: The DPPH test is a chemical assay of radical scavenging.

Test [2] has as its system LPS-induced NO synthesis. As to the kind of experiment: LPS-induced NO (nitrite) production in RAW 264.7 macrophages (Griess Reaction). Type of test: cell-based, mouse. The note with it: 10 μM; FIG. 3. The procedure: The mouse macrophage cell line RAW 264.7 was cultured in DMEM supplemented with foetal bovine serum (FBS), 2 mM glutamine and 50 U/ml penicillin/streptomycin (pen/strep). Cells were treated with either test compound (in 0.025% DMSO) or vehicle alone, and added one hour before 50 ng/ml LPS. After incubation for 24 hrs, culture media was collected for PGE2 or TXB2 measurement by ELISA (Cayman Chemical). The effect of test compounds at 10 μM on cell viability was examined using an MTT assay.
Nitrite concentration is a quantitative indicator of NO production (Wang et al. 2002) and was determined by the Griess Reaction (Coligan et al. 1994). Briefly, 100 μL of Griess reagent was added to 50 μL of each supernatant in duplicate in two separate assays, run as for the examination of PGE2 etc. The absorbance at 550 nm was measured, and nitrite concentrations were determined against a standard curve of sodium nitrite.
Background: Nitrite, measured by Griess reagent, commonly stands in for NO production.

As to `Oc1ccc(C2=Cc3ccc(O)cc3OC2)cc1` [Compound 37-DHE, reference compound], in test [1], the EC50 worked out at 55.1 µM and the “free radical scavenging activity” value is reported as “only low activity”. For the same compound, the “production of nitrite by macrophages stimulated by LPS” value in test [2] is “did not inhibit”.

As for `Oc1ccc([C@H]2COc3cc(O)ccc3C2)cc1` [Eq, equol, reference compound], in test [1], the EC50 is over 100 µM and the “free radical scavenging activity” value is “not active”. Moreover, in test [2], the “production of nitrite by macrophages stimulated by LPS” value is “did not inhibit”.
